Experimental findings from PubChem BioAssay AID1745844 (Carcinogenic Potency Database (CPDB), 2022) are described below.

As usually defined, the TD50 is the dose at which the toxic effect under study appears in half of the subjects.

The data set deals with rodent lifetime carcinogenesis bioassay, tumor incidence TD50. Briefly: chronic cancer bioassays in animals – CPDB, compiled studies (AID 1745844).

Calls of active or inactive are those of the source. The rule behind the calls is not given here.

For `CCCC(Cl)CCCC(Cl)CCC(Cl)CCC(Cl)CCC(Cl)CCCC(Cl)CCC` (centres undefined), the TD50 is 347 mg/kg/day (mouse, strain B6C3F1, females, by gavage, site: Harderian gland, lesion: adenoma, NOS, dosed 103 weeks, study length 104 weeks); 86.8 mg/kg/day (mouse, strain B6C3F1, females, by gavage, site: liver + thyroid gland, lesion: hepatocellular adenoma + hepatocellular carcinoma + follicular-cell adenoma + follicular-cell carcinoma, dosed 103 weeks, study length 104 weeks); 1.22e+06 mg/kg/day (mouse, strain B6C3F1, females, by gavage, site: lung, lesion: alveolar/bronchiolar adenoma + alveolar/bronchiolar carcinoma, dosed 103 weeks, study length 104 weeks); 599 mg/kg/day (mouse, strain B6C3F1, females, by gavage, site: multiple organs, lesion: malignant lymphoma, lymphocytic type, dosed 103 weeks, study length 104 weeks); 307 mg/kg/day (mouse, strain B6C3F1, females, by gavage, site: thyroid gland, lesion: follicular-cell adenoma + follicular-cell carcinoma, dosed 103 weeks, study length 104 weeks); 372 mg/kg/day (mouse, strain B6C3F1, females, by gavage, site: thyroid gland, lesion: follicular-cell adenoma, dosed 103 weeks, study length 104 weeks). For the same compound, the TD50 was 6540 mg/kg/day (mouse, strain B6C3F1, males, by gavage, site: liver + mesenteric lymph node + multiple organs + small intestine + spleen, lesion: malignant lymphoma, NOS + malignant lymphoma, mixed type + malignant lymphoma, lymphocytic type + malignant lymphoma, histiocy, dosed 103 weeks, study length 104 weeks); 143 mg/kg/day (mouse, strain B6C3F1, males, by gavage, site: liver, lesion: hepatocellular adenoma + hepatocellular carcinoma, dosed 103 weeks, study length 104 weeks); 157 mg/kg/day (mouse, strain B6C3F1, males, by gavage, site: liver, lesion: hepatocellular adenoma, dosed 103 weeks, study length 104 weeks); 606 mg/kg/day (mouse, strain B6C3F1, males, by gavage, site: lung, lesion: alveolar/bronchiolar carcinoma, dosed 103 weeks, study length 104 weeks); 12100 mg/kg/day (mouse, strain B6C3F1, males, by gavage, site: mesenteric lymph node + multiple organs + small intestine + spleen, lesion: malignant lymphoma, mixed type, dosed 103 weeks, study length 104 weeks); 22900 mg/kg/day (mouse, strain B6C3F1, males, by gavage, site: mesenteric lymph node + multiple organs, lesion: malignant lymphoma, lymphocytic type, dosed 103 weeks, study length 104 weeks). Moreover, the TD50 is 43200 mg/kg/day (mouse, strain B6C3F1, males, by gavage, site: multiple organs, lesion: malignant lymphoma, histiocytic type, dosed 103 weeks, study length 104 weeks); 44000 mg/kg/day (mouse, strain B6C3F1, males, by gavage, site: thyroid gland, lesion: follicular-cell carcinoma, dosed 103 weeks, study length 104 weeks); 2350 mg/kg/day (rat, strain Fischer 344, females, by gavage, site: adrenal medulla, lesion: pheochromocytoma + pheochromocytoma, malignant, dosed 103 weeks, study length 105 weeks); 1100 mg/kg/day (rat, strain Fischer 344, females, by gavage, site: any site (literature study), lesion: several types, types named in the paper, dosed 104 weeks, study length 105 weeks); 583 mg/kg/day (rat, strain Fischer 344, females, by gavage, site: liver + thyroid gland, lesion: hepatocellular carcinoma + neoplastic nodule + follicular-cell adenoma + follicular-cell carcinoma, dosed 104 weeks, study length 105 weeks); 24800 mg/kg/day (rat, strain Fischer 344, females, by gavage, site: liver, lesion: hepatocellular adenoma + hepatocellular carcinoma + neoplastic nodule, dosed 103 weeks, study length 105 weeks). Also, the TD50 is 1140 mg/kg/day (rat, strain Fischer 344, females, by gavage, site: liver, lesion: hepatocellular adenoma + hepatocellular carcinoma + neoplastic nodule, dosed 104 weeks, study length 105 weeks); 1140 mg/kg/day (rat, strain Fischer 344, females, by gavage, site: liver, lesion: hepatocellular carcinoma + neoplastic nodule, dosed 104 weeks, study length 105 weeks); 1200 mg/kg/day (rat, strain Fischer 344, females, by gavage, site: liver, lesion: neoplastic nodule, dosed 104 weeks, study length 105 weeks); 345 mg/kg/day (rat, strain Fischer 344, females, by gavage, site: multiple organs, lesion: mononuclear-cell leukemia, dosed 104 weeks, study length 105 weeks); 839 mg/kg/day (rat, strain Fischer 344, females, by gavage, site: pancreas, lesion: acinar-cell adenoma, dosed 104 weeks, study length 105 weeks); 1160 mg/kg/day (rat, strain Fischer 344, females, by gavage, site: thyroid gland, lesion: follicular-cell adenoma + follicular-cell carcinoma, dosed 104 weeks, study length 105 weeks). Further, the TD50 was determined as 736 mg/kg/day (rat, strain Fischer 344, females, by gavage, site: thyroid gland, lesion: follicular-cell adenoma, dosed 104 weeks, study length 105 weeks); 4060 mg/kg/day (rat, strain Fischer 344, females, by gavage, site: thyroid gland, lesion: follicular-cell carcinoma, dosed 104 weeks, study length 105 weeks); 394 mg/kg/day (rat, strain Fischer 344, females, by gavage, site: uterus, lesion: endometrial stromal polyp + endometrial stromal sarcoma, dosed 104 weeks, study length 105 weeks); 192 mg/kg/day (rat, strain Fischer 344, males, by gavage, site: adrenal gland, lesion: pheochromocytoma + pheochromocytoma, malignant, dosed 104 weeks, study length 105 weeks); 75.7 mg/kg/day (rat, strain Fischer 344, males, by gavage, site: any site (literature study), lesion: several types, types named in the paper, dosed 104 weeks, study length 105 weeks); 110 mg/kg/day (rat, strain Fischer 344, males, by gavage, site: kidney + liver, lesion: tubular-cell adenoma + tubular-cell adenocarcinoma + hepatocellular carcinoma + neoplastic nodule, dosed 104 weeks, study length 105 weeks). In addition, the TD50 is 196 mg/kg/day (rat, strain Fischer 344, males, by gavage, site: kidney, lesion: tubular-cell adenoma + tubular-cell adenocarcinoma, dosed 104 weeks, study length 105 weeks); 417 mg/kg/day (rat, strain Fischer 344, males, by gavage, site: kidney, lesion: tubular-cell adenoma, dosed 104 weeks, study length 105 weeks); 14500 mg/kg/day (rat, strain Fischer 344, males, by gavage, site: liver, lesion: hepatocellular adenoma + hepatocellular carcinoma + neoplastic nodule, dosed 103 weeks, study length 105 weeks); 123 mg/kg/day (rat, strain Fischer 344, males, by gavage, site: liver, lesion: hepatocellular adenoma + hepatocellular carcinoma + neoplastic nodule, dosed 104 weeks, study length 105 weeks); 123 mg/kg/day (rat, strain Fischer 344, males, by gavage, site: liver, lesion: hepatocellular carcinoma + neoplastic nodule, dosed 104 weeks, study length 105 weeks); 551 mg/kg/day (rat, strain Fischer 344, males, by gavage, site: liver, lesion: hepatocellular carcinoma, dosed 104 weeks, study length 105 weeks). For the same compound, the TD50 by setting is: (rat, strain Fischer 344, males, by gavage, site: liver, lesion: neoplastic nodule, dosed 103 weeks, study length 105 weeks) 14500 mg/kg/day (inactive); (rat, strain Fischer 344, males, by gavage, site: liver, lesion: neoplastic nodule, dosed 104 weeks, study length 105 weeks) 173 mg/kg/day; (rat, strain Fischer 344, males, by gavage, site: mammary gland, lesion: fibroadenoma, dosed 104 weeks, study length 105 weeks) 566 mg/kg/day; (rat, strain Fischer 344, males, by gavage, site: multiple organs + spleen, lesion: mononuclear-cell leukemia, dosed 104 weeks, study length 105 weeks) 406 mg/kg/day; (rat, strain Fischer 344, males, by gavage, site: pancreas, lesion: acinar-cell adenoma, dosed 104 weeks, study length 105 weeks) 150 mg/kg/day; (rat, strain Fischer 344, males, by gavage, site: pancreas, lesion: acinar-cell carcinoma + acinar-cell adenoma, dosed 104 weeks, study length 105 weeks) 144 mg/kg/day. Moreover, the TD50 runs as follows: (rat, strain Fischer 344, males, by gavage, site: pancreatic islets, lesion: islet-cell adenoma, dosed 103 weeks, study length 105 weeks) 17600 mg/kg/day; (rat, strain Fischer 344, males, by gavage, site: preputial gland, lesion: adenoma, NOS + carcinoma, NOS, dosed 104 weeks, study length 105 weeks) 522 mg/kg/day; (rat, strain Fischer 344, males, by gavage, site: preputial gland, lesion: adenoma, NOS, dosed 104 weeks, study length 105 weeks) 568 mg/kg/day; (rat, strain Fischer 344, males, by gavage, site: skin + subcutaneous tissue, lesion: fibroma, dosed 104 weeks, study length 105 weeks) 332 mg/kg/day; (rat, strain Fischer 344, males, by gavage, site: testis, lesion: interstitial-cell tumor, dosed 104 weeks, study length 105 weeks) 75.2 mg/kg/day.
For the compound `Nc1nc(N)nc(N)n1`, the carcinogen call (mouse, strain B6C3F1, females, in feed, site: any site (literature study), lesion: several types, types named in the paper, dosed 103 weeks, study length 105 weeks) is “negative (inactive)”. The TD50 reads like this: (mouse, strain B6C3F1, males, in feed, site: any site (literature study), lesion: several types, types named in the paper, dosed 103 weeks, study length 105 weeks) 3200 mg/kg/day (inactive); (mouse, strain B6C3F1, males, in feed, site: liver, lesion: hepatocellular adenoma + hepatocellular carcinoma + neoplastic nodule, dosed 103 weeks, study length 105 weeks) 4370 mg/kg/day; (rat, strain Fischer 344, females, in feed, site: any site (literature study), lesion: several types, types named in the paper, dosed 103 weeks, study length 105 weeks) 3930 mg/kg/day; (rat, strain Fischer 344, females, in feed, site: liver, lesion: hepatocellular adenoma + hepatocellular carcinoma + neoplastic nodule, dosed 103 weeks, study length 105 weeks) 4410 mg/kg/day; (rat, strain Fischer 344, females, in feed, site: thyroid gland, lesion: c-cell adenoma + c-cell carcinoma, dosed 103 weeks, study length 105 weeks) 2470 mg/kg/day (inactive); (rat, strain Fischer 344, females, in feed, site: thyroid gland, lesion: c-cell carcinoma, dosed 103 weeks, study length 105 weeks) 4160 mg/kg/day. Further, the TD50 is 149 mg/kg/day (rat, strain Fischer 344, males, in feed, site: any site (literature study), lesion: several types, types named in the paper, dosed 103 weeks, study length 105 weeks); 679 mg/kg/day (rat, strain Fischer 344, males, in feed, site: urinary bladder, lesion: transitional-cell carcinoma + transitional-cell papilloma, dosed 103 weeks, study length 105 weeks); 735 mg/kg/day (rat, strain Fischer 344, males, in feed, site: urinary bladder, lesion: transitional-cell carcinoma, dosed 103 weeks, study length 105 weeks).
Take `S=C(S)NCCNC(=S)S`: the carcinogen call by setting is: (mouse, strain B6AKF1, females, oral dosing, site: any site (literature study), lesion: several types, types named in the paper, dosed 76 weeks, study length 76 weeks) “negative (inactive)”; (mouse, strain B6AKF1, females, oral dosing, site: liver, lesion: hepatoma, dosed 76 weeks, study length 76 weeks) “negative (inactive)”; (mouse, strain B6AKF1, females, oral dosing, site: lung, lesion: several types, types named in the paper, dosed 76 weeks, study length 76 weeks) “negative (inactive)”; (mouse, strain B6AKF1, males, oral dosing, site: any site (literature study), lesion: several types, types named in the paper, dosed 76 weeks, study length 76 weeks) “negative (inactive)”; (mouse, strain B6AKF1, males, oral dosing, site: liver, lesion: hepatoma, dosed 76 weeks, study length 76 weeks) “negative (inactive)”; (mouse, strain B6AKF1, males, oral dosing, site: lung, lesion: adenoma, dosed 76 weeks, study length 76 weeks) “negative (inactive)”. Further, the carcinogen call is, setting by setting: (mouse, strain B6C3F1, females, oral dosing, site: any site (literature study), lesion: several types, types named in the paper, dosed 76 weeks, study length 76 weeks) “negative (inactive)”; (mouse, strain B6C3F1, females, oral dosing, site: liver, lesion: hepatoma, dosed 76 weeks, study length 76 weeks) “negative (inactive)”; (mouse, strain B6C3F1, females, oral dosing, site: lung, lesion: adenoma, dosed 76 weeks, study length 76 weeks) “negative (inactive)”; (mouse, strain B6C3F1, males, oral dosing, site: any site (literature study), lesion: several types, types named in the paper, dosed 76 weeks, study length 76 weeks) “negative (inactive)”; (mouse, strain B6C3F1, males, oral dosing, site: lung, lesion: adenoma, dosed 76 weeks, study length 76 weeks) “negative (inactive)”. Besides, the TD50 (mouse, strain B6C3F1, males, oral dosing, site: liver, lesion: hepatoma, dosed 76 weeks, study length 76 weeks) was 866 mg/kg/day (inactive).
